Experiments:
Format in all cases: in vivo
oval-leafed pondweed [1] = experiment: Test Example 2: weedkilling efficacy, growth period weed treatment in the submerged state; C: oval-leafed pondweed; settings: treatment dosage 252 g/ha
Outline: (§1)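 First, alluvial soil in pots is flooded to 4 cm and mixed seed is sown. Next, plants grow in a greenhouse at 25 to 30° C until the 1-2 leaf stage. Then diluted emulsion is applied onto the water surface at the given g/ha rate, and injury is assessed after 3 weeks.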

Italian ryegrass [2] = experiment: Test Example 4: weedkilling efficacy by foliar treatment; I: Italian ryegrass; settings: treatment dosage 315 g/ha
Outline: (§2)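 Seeds are spot-sown into sterilized diluvial soil and covered with about 1.5 cm of soil. After 14 days' greenhouse growth at 25 to 30° C, plants are sprayed on stems and leaves with diluted emulsion at the stated g/ha rate, then scored at 3 weeks.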

redroot pigweed [3] = experiment: Test Example 4: weedkilling efficacy by foliar treatment; L: redroot pigweed; settings: treatment dosage 315 g/ha
Outline: as §2

directly sown rice [4] = experiment: Test Example 4: foliar treatment, effect on crop; b: directly sown rice; settings: treatment dosage 315 g/ha
Outline: as §2

barnyard grass [5] = experiment: Test Example 1: weedkilling efficacy, preemergent weed treatment in the submerged state; A: barnyard grass; settings: treatment dosage 252 g/ha
Outline: (§3)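 Alluvial soil in Wagner pots flooded to 4 cm; barnyard grass, bulrush and oval-leafed pondweed seeds sown, then 2.5-leaf rice seedlings transplanted. Same day, emulsified compound diluted in water to set g/ha dosages and applied to water surface; greenhouse 25–30 °C, effect scored by criteria after 3 weeks.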

bulrush [6] = experiment: Test Example 2: weedkilling efficacy, growth period weed treatment in the submerged state; B: bulrush; settings: treatment dosage 252 g/ha
Outline: as §1

green foxtail [7] = experiment: Test Example 4: weedkilling efficacy by foliar treatment; E: green foxtail; settings: treatment dosage 315 g/ha
Outline: as §2

corn [8] = experiment: Test Example 3: soil treatment, effect on crop; c: corn; settings: treatment dosage 315 g/ha
Outline: (§4)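 Crop and weed responses were judged three weeks after a uniform surface spray of the water-diluted emulsion at the given g/ha rate. Seeds sat beneath about 1.5 cm of sterilized diluvial soil, and boxes stood in a greenhouse at 25 to 30° C.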

wheat [9] = experiment: Test Example 3: soil treatment, effect on crop; e: wheat; settings: treatment dosage 315 g/ha
Outline: as §4

catchweed [10] = experiment: Test Example 4: weedkilling efficacy by foliar treatment; O: catchweed; settings: treatment dosage 315 g/ha
Outline: as §2

birds-eye speedwell [11] = experiment: Test Example 4: weedkilling efficacy by foliar treatment; p: birds-eye speedwell; settings: treatment dosage 315 g/ha
Outline: as §2

oval-leafed pondweed [12] = experiment: Test Example 1: weedkilling efficacy, preemergent weed treatment in the submerged state; C: oval-leafed pondweed; settings: treatment dosage 252 g/ha
Outline: as §3

directly sown rice [13] = experiment: Test Example 3: soil treatment, effect on crop; b: directly sown rice; settings: treatment dosage 315 g/ha
Outline: as §4

Indian mallow [14] = experiment: Test Example 3: weedkilling efficacy through soil treatment; K: Indian mallow; settings: treatment dosage 315 g/ha
Outline: as §4

beet [15] = experiment: Test Example 4: foliar treatment, effect on crop; f: beet; settings: treatment dosage 315 g/ha
Outline: as §2

bulrush [16] = experiment: Test Example 1: weedkilling efficacy, preemergent weed treatment in the submerged state; B: bulrush; settings: treatment dosage 252 g/ha
Outline: as §3

corn [17] = experiment: Test Example 4: foliar treatment, effect on crop; c: corn; settings: treatment dosage 315 g/ha
Outline: as §2

catchweed [18] = experiment: Test Example 3: weedkilling efficacy through soil treatment; O: catchweed; settings: treatment dosage 315 g/ha
Outline: as §4

redroot pigweed [19] = experiment: Test Example 3: weedkilling efficacy through soil treatment; L: redroot pigweed; settings: treatment dosage 315 g/ha
Outline: as §4

green foxtail [20] = experiment: Test Example 3: weedkilling efficacy through soil treatment; E: green foxtail; settings: treatment dosage 315 g/ha
Outline: as §4

crabgrass [21] = experiment: Test Example 4: weedkilling efficacy by foliar treatment; D: crabgrass; settings: treatment dosage 315 g/ha
Outline: as §2

barnyard grass [22] = experiment: Test Example 2: weedkilling efficacy, growth period weed treatment in the submerged state; A: barnyard grass; settings: treatment dosage 252 g/ha
Outline: as §1

fig-leafed goosefoot [23] = experiment: Test Example 4: weedkilling efficacy by foliar treatment; M: fig-leafed goosefoot; settings: treatment dosage 315 g/ha
Outline: as §2

wild oat [24] = experiment: Test Example 4: weedkilling efficacy by foliar treatment; G: wild oat; settings: treatment dosage 315 g/ha
Outline: as §2

wild oat [25] = experiment: Test Example 3: weedkilling efficacy through soil treatment; G: wild oat; settings: treatment dosage 315 g/ha
Outline: as §4

Italian ryegrass [26] = experiment: Test Example 3: weedkilling efficacy through soil treatment; I: Italian ryegrass; settings: treatment dosage 315 g/ha
Outline: as §4

birds-eye speedwell [27] = experiment: Test Example 3: weedkilling efficacy through soil treatment; p: birds-eye speedwell; settings: treatment dosage 315 g/ha
Outline: as §4

black-grass [28] = experiment: Test Example 4: weedkilling efficacy by foliar treatment; H: black-grass; settings: treatment dosage 315 g/ha
Outline: as §2

chickweed [29] = experiment: Test Example 3: weedkilling efficacy through soil treatment; N: chickweed; settings: treatment dosage 315 g/ha
Outline: as §4

soybean [30] = experiment: Test Example 3: soil treatment, effect on crop; d: soybean; settings: treatment dosage 315 g/ha
Outline: as §4

fig-leafed goosefoot [31] = experiment: Test Example 3: weedkilling efficacy through soil treatment; M: fig-leafed goosefoot; settings: treatment dosage 315 g/ha
Outline: as §4

Indian mallow [32] = experiment: Test Example 4: weedkilling efficacy by foliar treatment; K: Indian mallow; settings: treatment dosage 315 g/ha
Outline: as §2

beet [33] = experiment: Test Example 3: soil treatment, effect on crop; f: beet; settings: treatment dosage 315 g/ha
Outline: as §4

wheat [34] = experiment: Test Example 4: foliar treatment, effect on crop; e: wheat; settings: treatment dosage 315 g/ha
Outline: as §2

transplanted rice = experiment: Test Example 1: preemergent weed treatment in the submerged state, effect on crop; a: transplanted rice; settings: treatment dosage 252 g/ha
Outline: as §3

black-grass [35] = experiment: Test Example 3: weedkilling efficacy through soil treatment; H: black-grass; settings: treatment dosage 315 g/ha
Outline: as §4

soybean [36] = experiment: Test Example 4: foliar treatment, effect on crop; d: soybean; settings: treatment dosage 315 g/ha
Outline: as §2

crabgrass [37] = experiment: Test Example 3: weedkilling efficacy through soil treatment; D: crabgrass; settings: treatment dosage 315 g/ha
Outline: as §4

chickweed [38] = experiment: Test Example 4: weedkilling efficacy by foliar treatment; N: chickweed; settings: treatment dosage 315 g/ha
Outline: as §2

COc1ccnc(NC(=O)C(C)(C)N2COC(C)=C(c3ccccc3)C2=O)c1 [B-2-63]
C (oval-leafed pondweed) weedkilling efficacy grade (oval-leafed pondweed [1]): 3 (weed kill ratio 40% or more, less than 70%)
I (Italian ryegrass) weedkilling efficacy grade (Italian ryegrass [2]): 1 (weed kill ratio 5% or more, less than 20%)
L (redroot pigweed) weedkilling efficacy grade (redroot pigweed [3]): 0 (weed kill ratio 5% or less (practically no effect))
b (directly sown rice) effect on crop grade (directly sown rice [4]): 0 (weed kill ratio 5% or less (practically no effect))
A (barnyard grass) weedkilling efficacy grade (barnyard grass [5]): 5 (weed kill ratio 90% or more, (practically complete withering))
B (bulrush) weedkilling efficacy grade (bulrush [6]): 4 (weed kill ratio 70% or more, less than 90%)
E (green foxtail) weedkilling efficacy grade (green foxtail [7]): 3 (weed kill ratio 40% or more, less than 70%)
c (corn) effect on crop grade (corn [8]): 0 (weed kill ratio 5% or less (practically no effect))
e (wheat) effect on crop grade (wheat [9]): 0 (weed kill ratio 5% or less (practically no effect))
O (catchweed) weedkilling efficacy grade (catchweed [10]): 2 (weed kill ratio 20% or more, less than 40%)
P (birds-eye speedwell) weedkilling efficacy grade (birds-eye speedwell [11]): 1 (weed kill ratio 5% or more, less than 20%)
C (oval-leafed pondweed) weedkilling efficacy grade (oval-leafed pondweed [12]): 4 (weed kill ratio 70% or more, less than 90%)
b (directly sown rice) effect on crop grade (directly sown rice [13]): 0 (weed kill ratio 5% or less (practically no effect))
K (Indian mallow) weedkilling efficacy grade (Indian mallow [14]): 0 (weed kill ratio 5% or less (practically no effect))
f (beet) effect on crop grade (beet [15]): 0 (weed kill ratio 5% or less (practically no effect))
B (bulrush) weedkilling efficacy grade (bulrush [16]): 5 (weed kill ratio 90% or more, (practically complete withering))
c (corn) effect on crop grade (corn [17]): 0 (weed kill ratio 5% or less (practically no effect))
O (catchweed) weedkilling efficacy grade (catchweed [18]): 3 (weed kill ratio 40% or more, less than 70%)
L (redroot pigweed) weedkilling efficacy grade (redroot pigweed [19]): 1 (weed kill ratio 5% or more, less than 20%)
E (green foxtail) weedkilling efficacy grade (green foxtail [20]): 4 (weed kill ratio 70% or more, less than 90%)
D (crabgrass) weedkilling efficacy grade (crabgrass [21]): 3 (weed kill ratio 40% or more, less than 70%)
A (barnyard grass) weedkilling efficacy grade (barnyard grass [22]): 3 (weed kill ratio 40% or more, less than 70%)
M (fig-leafed goosefoot) weedkilling efficacy grade (fig-leafed goosefoot [23]): 3 (weed kill ratio 40% or more, less than 70%)
G (wild oat) weedkilling efficacy grade (wild oat [24]): 0 (weed kill ratio 5% or less (practically no effect))
G (wild oat) weedkilling efficacy grade (wild oat [25]): 2 (weed kill ratio 20% or more, less than 40%)
I (Italian ryegrass) weedkilling efficacy grade (Italian ryegrass [26]): 3 (weed kill ratio 40% or more, less than 70%)
P (birds-eye speedwell) weedkilling efficacy grade (birds-eye speedwell [27]): 4 (weed kill ratio 70% or more, less than 90%)
H (black-grass) weedkilling efficacy grade (black-grass [28]): 0 (weed kill ratio 5% or less (practically no effect))
N (chickweed) weedkilling efficacy grade (chickweed [29]): 3 (weed kill ratio 40% or more, less than 70%)
d (soybean) effect on crop grade (soybean [30]): 0 (weed kill ratio 5% or less (practically no effect))
M (fig-leafed goosefoot) weedkilling efficacy grade (fig-leafed goosefoot [31]): 3 (weed kill ratio 40% or more, less than 70%)
K (Indian mallow) weedkilling efficacy grade (Indian mallow [32]): 0 (weed kill ratio 5% or less (practically no effect))
f (beet) effect on crop grade (beet [33]): 0 (weed kill ratio 5% or less (practically no effect))
e (wheat) effect on crop grade (wheat [34]): 0 (weed kill ratio 5% or less (practically no effect))
a (transplanted rice) effect on crop grade (transplanted rice): 0 (weed kill ratio 5% or less (practically no effect))
H (black-grass) weedkilling efficacy grade (black-grass [35]): 1 (weed kill ratio 5% or more, less than 20%)
d (soybean) effect on crop grade (soybean [36]): 2 (weed kill ratio 20% or more, less than 40%)
D (crabgrass) weedkilling efficacy grade (crabgrass [37]): 4 (weed kill ratio 70% or more, less than 90%)
N (chickweed) weedkilling efficacy grade (chickweed [38]): 2 (weed kill ratio 20% or more, less than 40%)

Reference: patent US9738634B2, “Heterocyclic amide compound and herbicide” (SYNGENTA PARTICIPATIONS AG, priority 2013, dated 2017)
